# Legend:
# Preliminary salt screen = assay type: physicochemical; details: equi-millimolar base and acid, 2-propanol or acetonitrile, alternative solvents
# Experimental: Test tubes (4 mL), provided with magnetic stir bars, were charged with equi-milimolar amounts of (R)-3-((E)-2-(pyrrolidin-3-yl)vinyl)-5-(tetrahydropyran-4-yloxy)pyridine base and the acid of interest (neat) and dissolved with 500 μL of either 2-propanol or acetonitrile with the aid of heat.
# If no precipitation occurred, the solvent was evaporated under a nitrogen stream with moderate heating and an alternative solvent was tried. Alternative solvents included acetone, ethyl acetate, isopropyl acetate, absolute ethanol, acetonitrile, hexane, tert-butanol, tert-butyl acetate, and blends thereof.
# The use of alcohols was avoided in the case of sulfonic acids.
# [1] = set-up: species or system human
# Text: Therefore any variation of (R)-3-((E)-2-(pyrrolidin-3-yl)vinyl)-5-(tetrahydropyran-4-yloxy)pyridine or a salt thereof metabolism in human due to CYP polymorphism is expected to be less than 2 fold due to the significant renal clearance and low hepatic clearance.
# panel of 65 receptors = assay: Multiple receptor screening assay; assay type: binding; details: single concentration of 10 μM
# Experimental: (R)-3-((E)-2-(Pyrrolidin-3-yl)vinyl)-5-(tetrahydropyran-4-yloxy)pyridine or a salt thereof was tested for selectivity against a panel of 65 receptors.
# normal rats = assay: Novel object recognition (NOR) task; assay type: in vivo, rat; details: for NOR time after dosing with statistically significant effect (out to / up to): 0.004 μmol/kg oral (FIG. 2)
# Experimental: Memory was assessed by using a three-trial novel object recognition test (Luine et al., Pharm. Biochem. Behav. 74, 213-220 (2002)). On the first day (exploratory trial), rats were allowed to explore an open arena (44.5×44.5×30.5 cm) for 6 min. On the second day (acquisition trial), rats were allowed to explore the same arena in the presence of two identical objects (both object A) for 3 min. On the third day (retention or recall trial), performance was evaluated by allowing the same animal to re-explore the arena for 3 min in the presence of two different objects: the familiar object A and a novel object B. An inter-trial interval of 24 h was imposed between the three NOR trials. Recognition memory was assessed by comparing the time spent exploring a novel (object B) versus a familiar (object A) object during the recall trial. Recognition index was assessed for each animal and expressed as a ratio ((time B/time A+time B)×100).
# (R)-3-((E)-2-(Pyrrolidin-3-yl)vinyl)-5-(tetrahydropyran-4-yloxy)pyridine or a salt thereof improved long-term visual episodic/declarative memory as assessed by novel object recognition (NOR) task following oral dosing in normal rats. […] In the two “recall only” sessions; subset of animals were orally dosed with water on day 1 (i.e., exploratory session) and day 2 (i.e., acquisition session) and then orally dosed either with 1.1 μmol/kg (R)-3-((E)-2-(pyrrolidin-3-yl)vinyl)-5-(tetrahydropyran-4-yloxy)pyridine or a salt thereof (left panel) or 0.04 μmol/kg (right panel) on day 3 (i.e., recall session). […] In the Figure, the dashed line at 65% denotes subjective criteria for biological cognitive enhancing activity. *P<0.05.
# (R)-3-((E)-2-(Pyrrolidin-3-yl)vinyl)-5-(tetrahydropyran-4-yloxy)pyridine or a salt thereof was evaluated for its duration of effect in the NOR task in normal rats. […] In the Figure, the dashed line at 65% denotes subjective criteria for biological cognitive enhancing activity (*P<0.05).
Molecule,Result of preliminary salt screen (physical form obtained) (Preliminary salt screen),also measured
O=C(O)c1ccc2ccccc2c1O [1-Hydroxy-2-naphthoic (Xinafoic)],brown gum,
CC(=O)Nc1ccc(C(=O)O)cc1 [4-Acetamidobenzoic],oil,
O=C(O)c1ccc(O)cc1 [4-Hydroxybenzoic],tacky gum,
COc1ccc(C(=O)O)cc1 [4-Methoxybenzoic],Oil,
"CC1(C)[C@@H](C(=O)O)CC[C@@]1(C)C(=O)O [(1 R,3S)-(+)-Camphoric]",oil,
CC1(C)[C@@H]2CC[C@@]1(CS(=O)(=O)O)C(=O)C2 [(1 S)-(+)-1 O-Camphorsulfonic],oil,
C(=C\[C@H]1CCNC1)/c1cncc(OC2CCOCC2)c1.O=C(O)C[C@H](O)C(=O)O [(R)-3-((E)-2-(pyrrolidin-3-yl)vinyl)-5-(tetrahydropyran-4-yloxy)pyridine mono-L-malate],Crystals,
O=C(O)CCCCC(=O)O [Adipic],oil,
O=C(O)CC(O)(CC(=O)O)C(=O)O [Citric],tacky gum,
"C(=C\[C@H]1CCNC1)/c1cncc(OC2CCOCC2)c1 [Compound A, (R)-3-((E)-2-(pyrrolidin-3-yl)vinyl)-5-(tetrahydropyran-4-yloxy)pyridine]",,"variation of metabolism due to CYP polymorphism [1]: less than 2 fold; renal clearance contribution to total clearance ([1]; human): more than 50%; Multiple receptor screening assay, receptors hit (panel of 65 receptors): only to neuronal nicotinic receptors; Multiple receptor screening assay, receptors hit (panel of 65 receptors; listed as (R)-3-(2-(pyrrolidin-3-yl)vinyl)-5-((tetrahydro-2H-pyran-4-yl)oxy)pyridine): Only nicotinic; NOR time after dosing with statistically significant effect (out to / up to) (normal rats): ≤ 8 h; NOR time after dosing with statistically significant effect (out to / up to) (normal rats; listed as (R)-3-((E)-2-(pyrrolidin-3-yl)vinyl)-5-(tetrahydropyran-4-yloxy)pyridine): up to 8 h; NOR time after dosing with statistically significant effect (out to / up to) (normal rats; listed as Formula I): ≤ 8 h; NOR doses with statistically significant effect (as low as) (normal rats; FIG. 1): ≥ 0.004 µM/kg; NOR minimum effect dose (MED) level (normal rats; follow-up NOR study, oral, rats): 0.004 µmol/kg; NOR recognition index, recall only sessions (normal rats; single oral administration on day 3, 1.1 μmol/kg or 0.04 μmol/kg): recognition indexes significantly above controls"
O=C[C@H](O)[C@@H](O)[C@H](O)[C@H](O)C(=O)O [D-glucuronic],brown gum,
Cl [Hydrochloric],red oil,
O=C(O)/C=C\C(=O)O [Maleic],Oil,
O=C(O)CC(=O)O [Malonic],Oil,
CS(=O)(=O)O [Methanesulfonic],Oil,
O=C(O)CCC(=O)O [Succinic],red oil,
Cc1ccc(S(=O)(=O)O)cc1.O [p-Toluenesulfonic.H20],Oil,
Fumaric,oil,
L-Tartaric,Oil,
